Test systems include RXF 393 renal; SNB-19 CNS; OVCAR-8 ovarian; A498 renal; MOLT-4 leukemia; UACC-257 melanoma; A549 NSCLC; SK-MEL-5 melanoma; HCC-2998 colon; SK-MEL-2 melanoma.
Common to all, as to test: NCI tumour cell line growth inhibition, 48 h

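A five-concentration, 48-hour dose response in 96-well plates underlies each endpoint, interpolated linearly between surrounding concentrations. GI50 marks 50% less growth. TGI denotes the concentration required for complete inhibition of growth.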

`NS(=O)(=O)c1ccc(NC(=O)c2cccn3c(=O)c4ccccc4nc23)cc1`: the TGI in the experiment with RXF 393 renal, with SNB-19 CNS, with OVCAR-8 ovarian, in the experiment with A498 renal, in the experiment with MOLT-4 leukemia and with UACC-257 melanoma was more than 100 µM throughout. The TGI with A549 NSCLC and in the experiment with SK-MEL-5 melanoma was more than 100 µM in each case.

In the case of `NC(N)=N/N=C/c1c(-c2ccc(Cl)c([N+](=O)[O-])c2)nc2n1CCS2`, the GI50 with SNB-19 CNS is 4.67 µM; in the experiment with OVCAR-8 ovarian, 8.89 µM; in the experiment with A498 renal, 18.3 µM; with MOLT-4 leukemia, 3.4 µM; with UACC-257 melanoma, 20.6 µM; in the experiment with A549 NSCLC, 16.1 µM. In addition, the GI50 with SK-MEL-5 melanoma is 15 µM. Also, the TGI with SNB-19 CNS is more than 100 µM; with OVCAR-8 ovarian, more than 100 µM; with A498 renal, 39.5 µM; with MOLT-4 leukemia, 36 µM; in the experiment with UACC-257 melanoma, 51.8 µM; in the experiment on A549 NSCLC it was 77.9 µM. In the experiment with SK-MEL-5 melanoma, the TGI came out at 36.7 µM.

On to `COc1ccc2c(c1)nc1n2C(c2ccc(F)cc2)SC1` (configuration not stated), for which the GI50 in the experiment with RXF 393 renal is 82.9 µM; in the experiment on HCC-2998 colon, 18.4 µM; in the experiment with SNB-19 CNS, 36.5 µM; in the experiment with OVCAR-8 ovarian it was 17.2 µM; with MOLT-4 leukemia, 26.8 µM; with UACC-257 melanoma, 28.7 µM. For the same compound, the results for the GI50 in the experiment on SK-MEL-2 melanoma, in the experiment on A549 NSCLC and in the experiment on SK-MEL-5 melanoma were 20.4 µM, 25.4 µM and 15.4 µM, respectively. Moreover, the TGI is more than 100 µM in the experiment on RXF 393 renal; 57.1 µM with HCC-2998 colon; more than 100 µM with SNB-19 CNS; 43.2 µM in the experiment with OVCAR-8 ovarian; more than 100 µM in the experiment with MOLT-4 leukemia; more than 100 µM in the experiment on UACC-257 melanoma. Besides, the TGI in the experiment on SK-MEL-2 melanoma is 65 µM; with A549 NSCLC, more than 100 µM; in the experiment with SK-MEL-5 melanoma, 28.7 µM.

Turning to `Nc1ccn([C@@H]2C(F)=C(CO)[C@@H](O)[C@H]2O)c(=O)n1`, the GI50 was 8.04 µM in the experiment with RXF 393 renal; 0.962 µM in the experiment with HCC-2998 colon; 2.81 µM in the experiment on SNB-19 CNS; 0.551 µM in the experiment with OVCAR-8 ovarian; 1.85 µM with MOLT-4 leukemia; more than 100 µM with SK-MEL-2 melanoma. Also, the GI50 with A549 NSCLC was 0.42 µM; with SK-MEL-5 melanoma it was 4.37 µM. Besides, the TGI in the experiment with RXF 393 renal, with HCC-2998 colon, with SNB-19 CNS, with OVCAR-8 ovarian, in the experiment with MOLT-4 leukemia and in the experiment on SK-MEL-2 melanoma was more than 100 µM each time. Also, the TGI with A549 NSCLC and in the experiment with SK-MEL-5 melanoma was more than 100 µM throughout.

Consider `C[C@@]12CCCC(=O)N1[C@@H](CO)C(c1ccccc1)O2` (some centres not stated), for which the TGI in the experiment on RXF 393 renal, with SNB-19 CNS, in the experiment with OVCAR-8 ovarian, in the experiment on A498 renal, with UACC-257 melanoma and in the experiment on SK-MEL-2 melanoma was more than 100 µM throughout. The TGI in the experiment on A549 NSCLC and in the experiment with SK-MEL-5 melanoma was more than 100 µM throughout.

Take `COc1ccc(/C=C(/C(=O)n2cnnn2)c2cc(OC)c(OC)c(OC)c2)cc1`: the GI50 in the experiment with RXF 393 renal was 3.91 µM; in the experiment on SNB-19 CNS, 4.25 µM; in the experiment with OVCAR-8 ovarian, 3.66 µM; with A498 renal, 4.26 µM; with MOLT-4 leukemia, 4.31 µM; in the experiment on UACC-257 melanoma, more than 100 µM. Further, the GI50 is 6.64 µM in the experiment on SK-MEL-2 melanoma, 3.97 µM in the experiment on A549 NSCLC and 3.12 µM with SK-MEL-5 melanoma. Moreover, the TGI in the experiment with RXF 393 renal, in the experiment with SNB-19 CNS, in the experiment with OVCAR-8 ovarian, in the experiment with A498 renal, in the experiment with MOLT-4 leukemia and in the experiment with UACC-257 melanoma was more than 100 µM each time. The values for the TGI in the experiment with SK-MEL-2 melanoma, in the experiment with A549 NSCLC and with SK-MEL-5 melanoma were more than 100 µM, more than 100 µM and 29.4 µM, respectively.

Turning to `CC(C)(C)[Si](C)(C)OCC1OC(n2cnc3c(N)ncnc32)C(O)C1O` (configuration not stated), the TGI with RXF 393 renal, in the experiment on SNB-19 CNS, in the experiment on OVCAR-8 ovarian, in the experiment with MOLT-4 leukemia, in the experiment with UACC-257 melanoma and in the experiment on SK-MEL-2 melanoma was more than 100 µM each time. The TGI in the experiment with A549 NSCLC is more than 100 µM; with SK-MEL-5 melanoma it was 89.5 µM.

As to `C/C(=N\n1c(N)c(C#N)c(-c2ccc(Cl)cc2)c(C#N)c1=O)c1ccncc1`, the GI50 in the experiment with HCC-2998 colon is more than 100 µM; with SNB-19 CNS, 10.6 µM; in the experiment on OVCAR-8 ovarian it was 2.95 µM; in the experiment with MOLT-4 leukemia, more than 100 µM; with UACC-257 melanoma it was 13.5 µM; in the experiment on SK-MEL-2 melanoma, 27.8 µM. Besides, the values for the GI50 in the experiment on A549 NSCLC and in the experiment on SK-MEL-5 melanoma were 7.58 µM and 21.8 µM, respectively. Further, the TGI in the experiment with HCC-2998 colon is more than 100 µM; in the experiment on SNB-19 CNS it was more than 100 µM; with OVCAR-8 ovarian it was 12.4 µM; with MOLT-4 leukemia, more than 100 µM; in the experiment on UACC-257 melanoma, 95.3 µM; with SK-MEL-2 melanoma it was more than 100 µM. Moreover, the TGI in the experiment with A549 NSCLC is 65.4 µM; in the experiment on SK-MEL-5 melanoma, more than 100 µM.

In the case of `COc1nc2c(c(O)c(C)c(=O)n2OC2OC(COC(C)=O)C(OC(C)=O)C(OC(C)=O)C2OC(C)=O)c(=O)n1C` (configuration not stated), the TGI with RXF 393 renal, with HCC-2998 colon, with SNB-19 CNS, with OVCAR-8 ovarian, with MOLT-4 leukemia and with SK-MEL-2 melanoma was more than 100 µM each time. In addition, the TGI in the experiment on A549 NSCLC and in the experiment on SK-MEL-5 melanoma was more than 100 µM each time.

With `COc1ccc(C2NCCc3c2[nH]c2ccccc32)cc1` (configuration not stated), the TGI in the experiment on RXF 393 renal is more than 100 µM; in the experiment on HCC-2998 colon it was 65.1 µM; in the experiment with SNB-19 CNS, more than 100 µM; in the experiment with OVCAR-8 ovarian, more than 100 µM; with MOLT-4 leukemia, more than 100 µM; in the experiment with UACC-257 melanoma, more than 100 µM. Moreover, the TGI with A549 NSCLC was more than 100 µM; in the experiment on SK-MEL-5 melanoma, 66.1 µM.

`c1cnc2[nH]cc(-c3csc(-c4cn(CCCN5CCCCC5)c5ccccc45)n3)c2c1`: the GI50 is 1.83 µM in the experiment on A498 renal; 1.82 µM with MOLT-4 leukemia; 1.97 µM with UACC-257 melanoma; 2.04 µM in the experiment with SK-MEL-2 melanoma; 1.97 µM with A549 NSCLC. The TGI in the experiment on A498 renal turned out to be 3.38 µM; in the experiment on MOLT-4 leukemia, 3.52 µM; with UACC-257 melanoma it was 3.73 µM; in the experiment with SK-MEL-2 melanoma, 4.24 µM; in the experiment with A549 NSCLC it was 3.63 µM.

For the origin of these results see PubChem BioAssay (NCI).
